Tested on: excised human nerve tissue (or nerve extracts)
Assay: Phage display library screening (Example 2), NEB tissue-binding peptides: nerve tissue and nerve extracts versus muscle
Conditions: unique sequence count, peptides not binding muscle extracts; for Count Excised Nerve: tissue target: excised nerve; for Count Nerve Extract: tissue target: nerve extract; for Count Neuron: tissue target: neuron
Method: Phage display library screens were used to identify peptides that bind to target proteins (including specific laminin trimers) that are expressed in human nerves, as described in Table 3. These screens were also carried out to identify peptides that could bind selectively to nerves versus muscle. Such peptides could therefore be useful for systemic in-vivo labeling of nerves during fluorescence assisted surgery. Specifically, m 13 phage libraries expressing 7 or 12 random amino acid peptides, or a cyclic peptide CX7C, on the N-terminus of the minor coat protein pIII (New England Biolabs; NEB) were processed through multiple rounds of selection for binding to target proteins expressed in nerves, or to excised human nerves, nerve extracts, or muscle, as described further below.
To identify peptides selective for nerves versus muscle, phage from the same libraries used for specific target proteins were used to screen against excised human nerve tissue (or nerve extracts) and human muscle tissue.
Excised Nerve Tissue: Phage were processed through multiple cycles of selection, with representative phage being isolated and sequenced after each selection cycle. Specifically, for selection using human nerve tissue, a sample of […] tissue (2 mm by 2 mm) was washed prior to mixing and incubation with a phage library. After incubation, the mixture (containing mostly intact nerves with phage particles that had variable affinity for nerves) was centrifuged and the nerve pellet washed multiple times with PBS to remove phage with little or no affinity for nerve tissue. The pellet was homogenized and plated for titering and reamplification. Phage that were bound at each round were sequenced. NextGen sequencing of pools after 2, 3 and 4 rounds of selection were used to isolate candidate sequences that were further analyzed using bioinformatics.
Nerve Extracts: Phage libraries were incubated for up to 24 hours at 4° C. in 96 well plates that had been coated with a human nerve extract. Plates were then washed with PBS and phage were eluted using 0.2M glycine pH 2.0. Phage supernatants where then neutralized with Tris pH 9.0 prior to plating on TG1 bacteria and LB agar plates. Colonies were counted to determine titer followed by DNA preparation of pools of phage and NextGen sequencing. After rounds of selection, phage were pooled and amplified for iterative selection. Phage that eluted by 0.2M glycine pH 2.0 (the nerve binders) at each round were sequenced. NextGen sequencing of pools after 2, 3 and 4 rounds of selection were used to isolate candidate sequences that were further analyzed using bioinformatics.
Muscle Tissue: Phage were processed through multiple cycles of selection, with representative phage being isolated and sequenced after each selection cycle. Specifically, for selection using human skeletal muscle tissue, a sample of skeletal muscle tissue (2 mm by 2 mm) was washed prior to mixing and incubation with a phage library. After incubation, the mixture (containing mostly intact muscle with phage particles that had variable affinity for muscle) was centrifuged and the muscle pellet washed multiple times with PBS to remove phage with little or no affinity for muscle tissue. The pellet was then homogenized and plated for titering and reamplification. Phage that were bound at each round were sequenced. NextGen sequencing of pools after 2, 3 and 4 rounds of selection were used to isolate candidate sequences that were further analyzed using bioinformatics.
For all NEB sequence datasets, a python script was used to translate, trim, and filter the peptide sequences (see details above). A python script was used to group peptides from different assays according to tissue target (muscle, nerve, neuron, or nerve extract) and combine the unique sequence counts for each peptide. […]

## HSGAYTIQASYK
  Count Excised Nerve: 9
  Count Nerve Extract: 15
  Count Neuron: 6

## EESNAKLELLSR
  Count Excised Nerve: 12
  Count Nerve Extract: 26
  Count Neuron: 14

## GWANSITYRNLY
  Count Excised Nerve: 17
  Count Nerve Extract: 26
  Count Neuron: 9

## NGMNWLQVHQLS
  Count Excised Nerve: 12
  Count Nerve Extract: 18
  Count Neuron: 6

## YAWDTVASRNYK
  Count Excised Nerve: 14
  Count Nerve Extract: 20
  Count Neuron: 6

## WDVAWLERRALH
  Count Excised Nerve: 23
  Count Nerve Extract: 43
  Count Neuron: 20

## TSAHHDRTLAGS
  Count Excised Nerve: 6
  Count Nerve Extract: 12
  Count Neuron: 6

## MLKMERPGRMAY
  Count Excised Nerve: 9
  Count Nerve Extract: 15
  Count Neuron: 6

## SEPIEKGSRTIV
  Count Excised Nerve: 7
  Count Nerve Extract: 13
  Count Neuron: 6

## YANGIEAKDSSR
  Count Excised Nerve: 14
  Count Nerve Extract: 20
  Count Neuron: 6

## IPGQTPRMPHSK
  Count Excised Nerve: 8
  Count Nerve Extract: 21
  Count Neuron: 13

## AFRFEFQVPDSH
  Count Excised Nerve: 7
  Count Nerve Extract: 18
  Count Neuron: 11

## WVGPDIIAQMRI
  Count Excised Nerve: 8
  Count Nerve Extract: 16
  Count Neuron: 8

## DVMQMFHQVHFY
  Count Excised Nerve: 10
  Count Nerve Extract: 17
  Count Neuron: 7

## MLRHVDLTEPNA
  Count Excised Nerve: 7
  Count Nerve Extract: 13
  Count Neuron: 6

## VTDMLGIPKLHA
  Count Excised Nerve: 18
  Count Nerve Extract: 28
  Count Neuron: 10

## SPMANVWFNRLS
  Count Excised Nerve: 7
  Count Nerve Extract: 17
  Count Neuron: 10

## GHAHSLTQNPLF
  Count Excised Nerve: 10
  Count Nerve Extract: 18
  Count Neuron: 8

## QRATNDILIRGW
  Count Excised Nerve: 9
  Count Nerve Extract: 17
  Count Neuron: 8

## EMVPMKFLMMAK
  Count Excised Nerve: 8
  Count Nerve Extract: 14
  Count Neuron: 6

## NYAVGDRITKNI
  Count Excised Nerve: 18
  Count Nerve Extract: 25
  Count Neuron: 7

## SDHTFKRVMFRW
  Count Excised Nerve: 8
  Count Nerve Extract: 15
  Count Neuron: 7

## DELVGGAPWYKS
  Count Excised Nerve: 20
  Count Nerve Extract: 27
  Count Neuron: 7

## TEWMVRASSIGE
  Count Excised Nerve: 6
  Count Nerve Extract: 14
  Count Neuron: 8

## VNYQTPWNKHWY
  Count Excised Nerve: 10
  Count Nerve Extract: 21
  Count Neuron: 11

## RTVITNEMLLLV
  Count Excised Nerve: 7
  Count Nerve Extract: 13
  Count Neuron: 6

## AIMSYNSPWIQG
  Count Excised Nerve: 9
  Count Nerve Extract: 17
  Count Neuron: 8

## YSANSNPKKSLM
  Count Excised Nerve: 11
  Count Nerve Extract: 17
  Count Neuron: 6

## SLGSSFVQGGEL
  Count Excised Nerve: 12
  Count Nerve Extract: 19
  Count Neuron: 7

## WEKHTGPLSRYL
  Count Excised Nerve: 6
  Count Nerve Extract: 19
  Count Neuron: 13

## EPWQSRDKVIEE
  Count Excised Nerve: 8
  Count Nerve Extract: 16
  Count Neuron: 8

## GLLREPDELMFL
  Count Excised Nerve: 18
  Count Nerve Extract: 27
  Count Neuron: 9

## FDPLSRNVPHKT
  Count Excised Nerve: 16
  Count Nerve Extract: 22
  Count Neuron: 6

## VERLNWPKRMQS
  Count Excised Nerve: 27
  Count Nerve Extract: 43
  Count Neuron: 16

## HGIVFSKRPFSN
  Count Excised Nerve: 12
  Count Nerve Extract: 23
  Count Neuron: 11

## VESGHAYSVSSW
  Count Excised Nerve: 14
  Count Nerve Extract: 20
  Count Neuron: 6

## DASQYPLVSGLW
  Count Excised Nerve: 10
  Count Nerve Extract: 16
  Count Neuron: 6

## VRLPMLASMGHQ
  Count Excised Nerve: 19
  Count Nerve Extract: 40
  Count Neuron: 21

## SGEYNLIKPNLL
  Count Excised Nerve: 20
  Count Nerve Extract: 27
  Count Neuron: 7

## EIIVMSGSNVTN
  Count Excised Nerve: 9
  Count Nerve Extract: 15
  Count Neuron: 6

## SGWHLVMSMSIG
  Count Excised Nerve: 6
  Count Nerve Extract: 12
  Count Neuron: 6

## QSTLGVHMLRVS
  Count Excised Nerve: 6
  Count Nerve Extract: 13
  Count Neuron: 7

## QANLYYWDPSDL
  Count Excised Nerve: 8
  Count Nerve Extract: 17
  Count Neuron: 9

## SSLYMNGWSRDQ
  Count Excised Nerve: 23
  Count Nerve Extract: 49
  Count Neuron: 26

## WSGGMEDNSNRL
  Count Excised Nerve: 9
  Count Nerve Extract: 18
  Count Neuron: 9

## GLTIMSSRHSLQ
  Count Excised Nerve: 12
  Count Nerve Extract: 18
  Count Neuron: 6

## GMRTGDDSPKYP
  Count Excised Nerve: 14
  Count Nerve Extract: 21
  Count Neuron: 7

## YAGQNGWMRSDL
  Count Excised Nerve: 28
  Count Nerve Extract: 45
  Count Neuron: 17

## LQTHSITYRHER
  Count Excised Nerve: 7
  Count Nerve Extract: 19
  Count Neuron: 12

## NAVHRPDLNLLA
  Count Excised Nerve: 15
  Count Nerve Extract: 22
  Count Neuron: 7

## WPLKRFEQLPLK
  Count Excised Nerve: 6
  Count Nerve Extract: 14
  Count Neuron: 8

## GWQMFPPMQNTR
  Count Excised Nerve: 10
  Count Nerve Extract: 50
  Count Neuron: 40

## GWNEATNSARHT
  Count Excised Nerve: 26
  Count Nerve Extract: 32
  Count Neuron: 6

## DRGLTILTDDLR
  Count Excised Nerve: 27
  Count Nerve Extract: 34
  Count Neuron: 7

Source: patent publication US20240207421A1, “NERVE TARGETING PEPTIDES AND METHODS OF USE” (ALUME BIOSCIENCES, INC., priority 2020, published 2024)
